For five compounds, IC50 results are on record in patent US12371428B2 (Exelixis, Inc., priority 2019, dated 2025).

Experiment [1] has as its target Human MER (residues 528-999) (Homo sapiens (Human), UniProt Q12866). The experiment in a line: Human Mer kinase assay, HTRF KinEase (Example C-2). The class given is biochemical. The conditions noted are these: protocol of Example C-2 (other compounds). In a few lines:
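IC50 values from 10 concentrations via 4-parameter logistic fit of […], with DMSO as 100% and 1 μM reference compound as 0% activity. Reaction: MER kinase domain 528-999, 1 ng/well, 40 μM ATP (Km), biotin peptide, 5 mM MgCl2, 1 mM DTT, 3% DMSO, room temperature 60 min; HTRF streptavidin-XL665/Eu-antibody detection.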

In experiment [2] the target is KDR (phospho-KDR, VEGF165-stimulated HUVEC cells) (Homo sapiens (Human), UniProt P35968). The experiment in a line: KDR autophosphorylation ELISA in HUVEC cells (Example G). It counts as cell-based. The conditions noted are these: cellular activity; KDR autophosphorylation ELISA in HUVEC cells. The method in brief: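 HUVECs were serum-starved 24 h, given compound as an 8-point dilution series (0.3% DMSO final) for 1 h, then stimulated with 100 ng/mL VEGF165 for 5 min. Lysate phospho-KDR was quantified by sandwich ELISA against a phospho-KDR standard, and IC50s came from a 4-parameter logistic fit.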
KDR (phospho-KDR, VEGF165-stimulated HUVEC cells), sequence (P35968 20-1356): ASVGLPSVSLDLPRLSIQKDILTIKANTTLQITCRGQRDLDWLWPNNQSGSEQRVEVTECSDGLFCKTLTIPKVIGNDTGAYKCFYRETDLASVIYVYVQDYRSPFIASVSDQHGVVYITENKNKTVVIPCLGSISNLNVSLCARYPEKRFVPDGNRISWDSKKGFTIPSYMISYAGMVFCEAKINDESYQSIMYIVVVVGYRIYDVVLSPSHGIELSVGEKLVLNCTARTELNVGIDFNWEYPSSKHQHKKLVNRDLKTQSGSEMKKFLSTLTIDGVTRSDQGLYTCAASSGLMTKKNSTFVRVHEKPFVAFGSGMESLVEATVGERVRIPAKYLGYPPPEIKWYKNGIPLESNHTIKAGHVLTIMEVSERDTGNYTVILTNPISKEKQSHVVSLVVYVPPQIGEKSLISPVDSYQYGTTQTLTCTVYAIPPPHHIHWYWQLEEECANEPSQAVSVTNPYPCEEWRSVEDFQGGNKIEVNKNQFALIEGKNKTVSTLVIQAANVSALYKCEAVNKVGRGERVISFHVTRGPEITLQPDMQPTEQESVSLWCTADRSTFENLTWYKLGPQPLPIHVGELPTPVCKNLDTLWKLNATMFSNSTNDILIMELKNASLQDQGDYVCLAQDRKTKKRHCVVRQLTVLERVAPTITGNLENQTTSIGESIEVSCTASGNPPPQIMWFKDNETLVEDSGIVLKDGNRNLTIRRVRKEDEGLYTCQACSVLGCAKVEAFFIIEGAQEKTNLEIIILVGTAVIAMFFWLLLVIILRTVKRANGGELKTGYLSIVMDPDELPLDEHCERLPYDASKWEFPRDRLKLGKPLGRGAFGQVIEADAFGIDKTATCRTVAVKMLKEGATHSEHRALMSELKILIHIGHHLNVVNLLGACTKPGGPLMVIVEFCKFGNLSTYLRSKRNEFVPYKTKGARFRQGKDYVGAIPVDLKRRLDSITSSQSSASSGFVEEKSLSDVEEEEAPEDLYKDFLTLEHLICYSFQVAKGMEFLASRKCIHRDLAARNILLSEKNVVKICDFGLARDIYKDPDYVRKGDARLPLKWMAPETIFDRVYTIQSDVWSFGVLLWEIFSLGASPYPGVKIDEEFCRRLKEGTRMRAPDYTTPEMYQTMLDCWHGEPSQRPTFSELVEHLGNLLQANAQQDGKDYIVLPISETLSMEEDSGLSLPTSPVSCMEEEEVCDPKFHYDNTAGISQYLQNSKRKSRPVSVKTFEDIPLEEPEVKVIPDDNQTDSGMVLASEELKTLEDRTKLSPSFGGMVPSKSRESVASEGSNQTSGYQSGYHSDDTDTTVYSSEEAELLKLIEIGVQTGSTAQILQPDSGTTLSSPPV

Human MER (residues 528-999), sequence (Q12866 528-999): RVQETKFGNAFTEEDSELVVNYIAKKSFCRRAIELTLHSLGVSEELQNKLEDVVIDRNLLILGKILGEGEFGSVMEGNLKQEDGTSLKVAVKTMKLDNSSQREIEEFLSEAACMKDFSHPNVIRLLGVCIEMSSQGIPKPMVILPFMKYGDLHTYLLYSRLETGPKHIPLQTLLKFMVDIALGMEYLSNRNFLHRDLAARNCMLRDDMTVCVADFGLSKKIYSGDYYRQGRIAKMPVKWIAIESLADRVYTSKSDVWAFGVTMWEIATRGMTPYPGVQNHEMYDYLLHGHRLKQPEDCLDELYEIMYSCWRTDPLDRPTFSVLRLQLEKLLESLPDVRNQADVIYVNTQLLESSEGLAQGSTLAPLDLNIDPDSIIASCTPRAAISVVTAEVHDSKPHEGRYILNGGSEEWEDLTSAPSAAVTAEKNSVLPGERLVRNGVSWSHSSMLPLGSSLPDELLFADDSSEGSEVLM

Take `COc1cc2nccc(Oc3ccc(NC(=O)c4cn(C5CC5)c(C)c(-c5ccc(F)cc5C)c4=O)cc3F)c2nc1OC` [Compound 439, 1-cyclopropyl-N-[4-[(6,7-dimethoxy-1,5-naphthyridin-4-yl)oxy]-3-fluorophenyl]-5-(4-fluoro-2-methylphenyl)-6-methyl-4-oxopyridine-3-carboxamide]: the IC50 was less than 100 nM in experiment [1] and greater than 300 nM in experiment [2].

For the compound `COc1cc2nccc(Oc3ccc(NC(=O)c4cn(C5CC5)c(C)c(-c5ccc(F)cc5C)c4=O)cc3)c2nc1OC` [Compound 440, 1-cyclopropyl-N-[4-[(6,7-dimethoxy-1,5-naphthyridin-4-yl)oxy]phenyl]-5-(4-fluoro-2-methylphenyl)-6-methyl-4-oxopyridine-3-carboxamide], the IC50 in experiment [1] was less than 100 nM; in experiment [2], greater than 300 nM.

Consider `COc1ccc2nccc(Oc3ccc(NC(=O)c4cn(C5CC5)c(C)c(-c5ccc(F)cc5C)c4=O)cc3F)c2n1` [Compound 441, 1-cyclopropyl-N-[3-fluoro-4-[(6-methoxy-1,5-naphthyridin-4-yl)oxy]phenyl]-5-(4-fluoro-2-methylphenyl)-6-methyl-4-oxopyridine-3-carboxamide], for which the IC50 in experiment [1] is less than 100 nM; in experiment [2] it was greater than 300 nM.

Turning to `COc1cc2nccc(Oc3ccc(NC(=O)c4c(C)nc(OC)c(-c5ccc(F)cc5)c4O)cc3F)c2nc1OC` [Compound 442, N-[4-[(6,7-dimethoxy-1,5-naphthyridin-4-yl)oxy]-3-fluorophenyl]-5-(4-fluorophenyl)-4-hydroxy-6-methoxy-2-methylpyridine-3-carboxamide], the IC50 in experiment [1] and in experiment [2] was less than 100 nM throughout.

For `COc1cc2nccc(Oc3ccc(NC(=O)c4c(C)nc(O)c(-c5ccc(F)cc5)c4O)cc3F)c2nc1OC` [Compound 443, N-[4-[(6,7-dimethoxy-1,5-naphthyridin-4-yl)oxy]-3-fluorophenyl]-5-(4-fluorophenyl)-4,6-dihydroxy-2-methylpyridine-3-carboxamide], the values for the IC50 in experiment [1] and in experiment [2] were less than 100 nM and greater than 300 nM, respectively.
